This note sets out measurements from ChEMBL document CHEMBL4513161, “CO-ADD screening of MMV (CH) - Pandemic Response Box” (2021).

One experiment concerns Candida albicans. Nature of the experiment: microbe, parasite or virus in culture. To be noted: ATCC 90028, ASSAY_TEST Inhibition of Fungal Growth, detection method Absorption (OD530), plate type 384well, NBS, CORNING #3640.
In experiment [1] the test system is Pseudomonas aeruginosa. Nature of the experiment: Antibacterial activity against Pseudomonas aeruginosa PAO397 [PAO1 d(mexAB-oprM) d(mexCD-oprJ) d(mexEF-oprN) d(mexJKL) d(mexXY) d(opmH)] (CO-ADD:GN_211); MIC in CAMBH media using NBS plates, by OD(600). It is filed as functional. To be noted: ASSAY_TEST Inhibition of Bacterial Growth, detection method Absorption (OD600), MEDIA CAMHB, plate type 384well, CORNING #3640, time 18 hr.

In a further experiment the test system is HEK293. Nature of the experiment: cells. Type of experiment: functional, Homo sapiens, ATCC CRL1573. To be noted: Homo sapiens, ATCC CRL1573, HEK293; ASSAY_TEST Inhibition of Cell Viability; detection method Resazurin; Fluorescence (ex560/em590); MEDIA DMEM with 10% FBS; plate type 384well; TC; CORNING #3712; time 18 hr; read-out: CC50. (Resazurin is reduced to fluorescent resorufin, in cell work by metabolically active cells.)

Experiment [2] concerns Pseudomonas aeruginosa. Nature of the experiment: microbe, parasite or virus in culture. The note with it: ATCC 27853, 18 h, ASSAY_TEST Inhibition of Bacterial Growth, detection method Absorption (OD600), MEDIA CAMHB, plate type 384well, NBS, CORNING #3640.
Description: Antibacterial activity against Pseudomonas aeruginosa ATCC 27853 (CO-ADD:GN_042); MIC in CAMBH media using NBS plates, by OD(600)
The next experiment deals with Escherichia coli. Nature of the experiment: microbe, parasite or virus in culture. To be noted: ATCC 25922, 18 h, ASSAY_TEST Inhibition of Bacterial Growth, detection method Absorption (OD600), MEDIA CAMHB, plate type 384well, NBS, CORNING #3640.
The next experiment has as its system Klebsiella pneumoniae. Nature of the experiment: microbe, parasite or virus in culture. To be noted: ATCC 700603, 18 h, ASSAY_TEST Inhibition of Bacterial Growth, detection method Absorption (OD600), MEDIA CAMHB, plate type 384well, NBS, CORNING #3640.
A further experiment concerns Staphylococcus aureus. Put plainly: microbe, parasite or virus in culture. The note with it: ATCC 43300, 18 h, ASSAY_TEST Inhibition of Bacterial Growth, detection method Absorption (OD600), MEDIA CAMHB, plate type 384well, NBS, CORNING #3640.
For another experiment, the system named is Acinetobacter baumannii. Put plainly: microbe, parasite or virus in culture. The note with it: ATCC 19606, 18 h, ASSAY_TEST Inhibition of Bacterial Growth, detection method Absorption (OD600), MEDIA CAMHB, plate type 384well, NBS, CORNING #3640.

Values after ≈ are worked out from the molar mass of the structure shown. Structures can show the parent of a compound that is named as a salt.

Description for Acinetobacter baumannii: Antibacterial activity against Acinetobacter baumannii ATCC 19606 (CO-ADD:GN_034); MIC in CAMBH media using NBS plates, by OD600
Description for Candida albicans: Antifungal activity against Candida albicans ATCC 90028 (CO-ADD:FG_001); MIC in YNB media using NBS plates, by OD630
Description for Cryptococcus neoformans: Antifungal activity against Cryptococcus neoformans H99 ATCC 208821 (CO-ADD:FG_002); MIC in YNB media using NBS plates, by Resazurin OD(600-570)
Description for Escherichia coli: Antibacterial activity against Escherichia coli ATCC 25922 (CO-ADD:GN_001); MIC in CAMBH media using NBS plates, by OD(600)
Description for Klebsiella pneumoniae: Antibacterial activity against Klebsiella pneumoniae MDR ATCC 70063 (CO-ADD:GN_003); MIC in CAMBH media using NBS plates, by OD(600)
Description for Staphylococcus aureus: Antibacterial activity against Staphylococcus aureus MRSA ATCC 43300 (CO-ADD:GP_020); MIC in CAMBH media, using NBS plates, by OD(600)

Consider `CN(C(=O)C1(c2ccc(Cl)cc2)CCC1)c1ccccc1`, for which the MIC with Candida albicans, against Pseudomonas aeruginosa [1], against Pseudomonas aeruginosa [2], against Escherichia coli, against Klebsiella pneumoniae and against Staphylococcus aureus was over 20 µM each time. Also, the MIC against Acinetobacter baumannii and in the experiment with Cryptococcus neoformans was over 20 µM each time. The half-maximal cytotoxic concentration (CC50) – broadly, the concentration at which the toxic effect on the cells reaches its halfway point – in the experiment on HEK293 was over 20 µM.
Consider `Nc1ccc(-c2nc3cc(C(F)(F)F)ccc3n2C23CC4CC(CC(C4)C2)C3)cc1`, for which the MIC against Candida albicans, against Pseudomonas aeruginosa [1], against Pseudomonas aeruginosa [2], against Escherichia coli, against Klebsiella pneumoniae and against Staphylococcus aureus was over 20 µM throughout. The MIC against Acinetobacter baumannii and in the experiment with Cryptococcus neoformans was over 20 µM throughout. In addition, in the experiment with HEK293, the half-maximal cytotoxic concentration (CC50) is over 20 µM.
As for `O=C(O)c1cc(-c2ccc(Br)cc2)nc2ccc(Cl)cc12`, the MIC in the experiment with Candida albicans, against Pseudomonas aeruginosa [1], in the experiment with Pseudomonas aeruginosa [2], in the experiment on Escherichia coli, in the experiment with Klebsiella pneumoniae and in the experiment on Staphylococcus aureus was over 20 µM in each case. Besides, the MIC against Acinetobacter baumannii and in the experiment on Cryptococcus neoformans was over 20 µM each time. The CC50 in the experiment with HEK293 is over 20 µM.
For `CC(C)(C)c1ccc(C(Cn2cccc(C(F)(F)F)c2=O)NC2Cc3ccccc3C2)cc1` (stereo not given), the MIC against Candida albicans, with Pseudomonas aeruginosa [1], against Pseudomonas aeruginosa [2], in the experiment on Escherichia coli, with Klebsiella pneumoniae and in the experiment on Staphylococcus aureus was over 20 µM in each case. Besides, the MIC with Acinetobacter baumannii and against Cryptococcus neoformans was over 20 µM throughout. Further, the cytotoxic concentration (CC50) in the experiment on HEK293 is over 20 µM.
For `Nc1nc(C(F)(F)F)cc2c1[nH]c(=O)n2Cc1ccccc1`, the MIC against Candida albicans, with Pseudomonas aeruginosa [1], with Pseudomonas aeruginosa [2], against Escherichia coli, against Klebsiella pneumoniae and against Staphylococcus aureus was over 20 µM in each case. The MIC against Acinetobacter baumannii and against Cryptococcus neoformans was over 20 µM throughout. For the same compound, in the experiment with HEK293, the 50% cytotoxic concentration (CC50) was over 20 µM.
For the compound `CCCCc1ccc(-c2nc(C)c(C(=O)OC)s2)cc1`, the MIC with Candida albicans, against Pseudomonas aeruginosa [1], against Pseudomonas aeruginosa [2], against Escherichia coli, in the experiment with Klebsiella pneumoniae and against Staphylococcus aureus was over 20 µM each time. The MIC against Acinetobacter baumannii and in the experiment with Cryptococcus neoformans was over 20 µM throughout. For the same compound, in the experiment with HEK293, the CC50 was over 20 µM.
Consider `CN1CCN(Cc2ccc(-c3cnc4[nH]cc(-c5ccc6[nH]ccc6c5)c4c3)cc2)CC1`, for which the MIC against Candida albicans, against Pseudomonas aeruginosa [1], with Pseudomonas aeruginosa [2], in the experiment on Escherichia coli, against Klebsiella pneumoniae and with Staphylococcus aureus was over 20 µM throughout. For the same compound, the MIC against Acinetobacter baumannii and against Cryptococcus neoformans was over 20 µM in each case. Moreover, in the experiment with HEK293, the CC50 was determined as 5.33 µM.
Take `CC1(C)CC(NC(=O)C(=O)Nc2ccc(Cl)cc2)CC(C)(C)N1`: the MIC in the experiment with Candida albicans, against Pseudomonas aeruginosa [1], against Pseudomonas aeruginosa [2], against Escherichia coli, against Klebsiella pneumoniae and against Staphylococcus aureus was over 20 µM each time. In addition, the MIC in the experiment with Acinetobacter baumannii and against Cryptococcus neoformans was over 20 µM in each case. The cytotoxic concentration (CC50) with HEK293 was over 20 µM.
Turning to `COc1cc(C(C(=O)NC2CCCCC2)N(C(=O)Cc2c[nH]c3ccccc23)c2ccc(C(C)C)cc2)cc(OC)c1OC` (stereo not given), the MIC with Candida albicans, in the experiment on Pseudomonas aeruginosa [1], with Pseudomonas aeruginosa [2], with Escherichia coli, against Klebsiella pneumoniae and in the experiment on Staphylococcus aureus was over 20 µM each time. The MIC in the experiment with Acinetobacter baumannii and against Cryptococcus neoformans was over 20 µM in each case. The 50% cytotoxic concentration (CC50) in the experiment on HEK293 is over 20 µM.
Take `Nc1nc(-c2ccccc2)nc2[nH]nc(Nc3ccc(C(F)(F)F)cc3)c12`: the MIC in the experiment with Candida albicans, against Pseudomonas aeruginosa [1], in the experiment on Pseudomonas aeruginosa [2], against Escherichia coli, in the experiment on Klebsiella pneumoniae and with Staphylococcus aureus was over 20 µM in each case. In addition, the MIC against Acinetobacter baumannii and with Cryptococcus neoformans was over 20 µM in each case. Besides, in the experiment with HEK293, the CC50 is over 20 µM.
For the compound `CNC(=O)C1O[C@@H](n2cnc3c(NCc4cccc(I)c4)nc(Cl)nc32)[C@H](O)[C@@H]1O` (stereo not given in full), the MIC in the experiment on Candida albicans, in the experiment on Pseudomonas aeruginosa [1], against Pseudomonas aeruginosa [2], with Escherichia coli, against Klebsiella pneumoniae and in the experiment on Staphylococcus aureus was over 20 µM each time. Also, the MIC in the experiment with Acinetobacter baumannii and against Cryptococcus neoformans was over 20 µM in each case. Further, the CC50 in the experiment on HEK293 worked out at 18.3 µM.
Consider `CCCC1(C2CC2)c2cc(Cl)ccc2NC(=O)N1C` (stereo not given), for which the MIC against Candida albicans, against Pseudomonas aeruginosa [1], in the experiment with Pseudomonas aeruginosa [2], with Escherichia coli, in the experiment with Klebsiella pneumoniae and with Staphylococcus aureus was over 20 µM each time. In addition, the MIC in the experiment on Acinetobacter baumannii and in the experiment with Cryptococcus neoformans was over 20 µM in each case. Further, the CC50 with HEK293 was over 20 µM.
For `Oc1c(C(Nc2nc3ccccc3s2)c2ccc(OC(F)F)cc2)ccc2cccnc12` (stereo not given), the MIC in the experiment on Candida albicans, in the experiment on Pseudomonas aeruginosa [1], with Pseudomonas aeruginosa [2], against Escherichia coli, against Klebsiella pneumoniae and in the experiment with Staphylococcus aureus was over 20 µM in each case. The MIC in the experiment with Acinetobacter baumannii and with Cryptococcus neoformans was over 20 µM in each case. For the same compound, in the experiment with HEK293, the CC50 was found to be 9.22 µM.
Regarding `Cc1ccc(Oc2ccccc2-c2csc(N=C3NCCCN3)n2)c(C)c1` [ABAFUNGIN], the MIC is 0.312 µM (≈ 0.118 µg/mL) in the experiment with Candida albicans; over 20 µM with Pseudomonas aeruginosa [1]; over 20 µM with Pseudomonas aeruginosa [2]; over 20 µM with Escherichia coli; over 20 µM with Klebsiella pneumoniae; over 20 µM with Staphylococcus aureus. The MIC in the experiment with Acinetobacter baumannii and with Cryptococcus neoformans was over 20 µM throughout. Also, in the experiment with HEK293, the CC50 is over 20 µM.
Turning to `Nc1nc2c(ncn2COCCO)c(=O)[nH]1` [ACYCLOVIR], the MIC against Candida albicans, in the experiment with Pseudomonas aeruginosa [1], with Pseudomonas aeruginosa [2], against Escherichia coli, against Klebsiella pneumoniae and against Staphylococcus aureus was over 20 µM throughout. The MIC with Acinetobacter baumannii and in the experiment on Cryptococcus neoformans was over 20 µM throughout. Besides, the CC50 in the experiment on HEK293 is over 20 µM.
For `CCCCC(CC)CNC(=N)NC(=N)NCCCCCCNC(=N)NC(=N)NCC(CC)CCCC` (stereo not given) [ALEXIDINE DIHYDROCHLORIDE], the MIC is 0.625 µM against Candida albicans; 5 µM with Pseudomonas aeruginosa [1]; 5 µM in the experiment with Pseudomonas aeruginosa [2]; 1.25 µM in the experiment on Escherichia coli; 5 µM in the experiment on Klebsiella pneumoniae; at most 0.156 µM in the experiment on Staphylococcus aureus. Besides, the MIC was 10 µM in the experiment with Acinetobacter baumannii and at most 0.156 µM against Cryptococcus neoformans. For the same compound, the cytotoxic concentration (CC50) with HEK293 is 2.61 µM.
For the compound `OB1OCc2cc(Cl)ccc21` [AN-2718], the MIC in the experiment with Candida albicans was 5 µM (≈ 0.842 µg/mL); in the experiment with Pseudomonas aeruginosa [1] it was over 20 µM; against Pseudomonas aeruginosa [2] it was over 20 µM; against Escherichia coli, over 20 µM; against Klebsiella pneumoniae, over 20 µM; against Staphylococcus aureus, over 20 µM. Besides, the MIC against Acinetobacter baumannii and in the experiment on Cryptococcus neoformans was over 20 µM throughout. Also, the CC50 in the experiment with HEK293 is over 20 µM.
`NCC(=O)Nc1ccc(-n2nc(C(F)(F)F)cc2-c2ccc3c(ccc4ccccc43)c2)cc1` [AR-12]: the MIC against Candida albicans, with Pseudomonas aeruginosa [1], against Pseudomonas aeruginosa [2], in the experiment with Escherichia coli, in the experiment with Klebsiella pneumoniae and in the experiment with Staphylococcus aureus was over 20 µM throughout. Further, the MIC in the experiment with Acinetobacter baumannii and with Cryptococcus neoformans was over 20 µM each time. Also, the cytotoxic concentration (CC50) in the experiment with HEK293 stood at 6.68 µM.
In the case of `COc1nc2ccc(Br)cc2cc1[C@@H](c1ccccc1)[C@@](O)(CCN(C)C)c1cccc2ccccc12` [BEDAQUILINE], the MIC in the experiment with Candida albicans, against Pseudomonas aeruginosa [1], against Pseudomonas aeruginosa [2], against Escherichia coli, against Klebsiella pneumoniae and with Staphylococcus aureus was over 20 µM throughout. Also, the MIC in the experiment with Acinetobacter baumannii and against Cryptococcus neoformans was over 20 µM in each case. Besides, in the experiment on HEK293, the CC50 is over 20 µM.
`CCc1oc2ccccc2c1C(=O)c1ccc(O)cc1` [BENZARONE]: the MIC in the experiment on Candida albicans, against Pseudomonas aeruginosa [1], against Pseudomonas aeruginosa [2], in the experiment with Escherichia coli, against Klebsiella pneumoniae and against Staphylococcus aureus was over 20 µM throughout. The MIC in the experiment on Acinetobacter baumannii and against Cryptococcus neoformans was over 20 µM throughout. The 50% cytotoxic concentration (CC50) in the experiment with HEK293 was over 20 µM.
